Tested on: NCI-H211 complex spheroid viability
Assay: Anticancer human tumor NCI-H211 cell line growth inhibition [LSD1];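 further: luminescent viability read after seven days of drug exposure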;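 on viability, T/C: 100% = DMSO vehicle control viability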
Details: for IC50: curve of first compound; for viability, T/C: stronger effect = lower value
Procedure, shortened: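 Multicellular complex spheroids of tumor cells with human endothelial cells (HUVEC) and mesenchymal stem cells; the LSD1 inhibitor iadademstat was combined with standard-of-care or investigational agents. Top concentration at or near clinical Cmax, half-log dilutions; final DMSO ≤0.25%.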

[1] = second compound 0.1 µM, first compound 0.00316 µM
[2] = second compound 0.1 µM, first compound 0.01 µM
[3] = second compound 0.1 µM, first compound 0.0316 µM
[4] = second compound 0.1 µM, first compound 0.1 µM
[5] = second compound 0.316 µM, first compound 0.00316 µM
[6] = second compound 0.316 µM, first compound 0.01 µM
[7] = second compound 0.316 µM, first compound 0.0316 µM
[8] = second compound 0.316 µM, first compound 0.1 µM
[9] = second compound 1 µM, first compound 0.00316 µM
[10] = second compound 1 µM, first compound 0.01 µM
[11] = second compound 1 µM, first compound 0.0316 µM
[12] = second compound 1 µM, first compound 0.1 µM
[13] = second compound 3.16 µM, first compound 0.00316 µM
[14] = second compound 3.16 µM, first compound 0.01 µM
[15] = second compound 3.16 µM, first compound 0.0316 µM
[16] = second compound 3.16 µM, first compound 0.1 µM
[17] = second compound 10 µM, first compound 0.00316 µM
[18] = second compound 10 µM, first compound 0.01 µM
[19] = second compound 10 µM, first compound 0.0316 µM
[20] = second compound 10 µM, first compound 0.1 µM

For `COc1cc(Nc2ncc3c(n2)-c2ccc(Cl)cc2C(c2c(F)cccc2OC)=NC3)ccc1C(=O)O` + NC1CCC(NC2CC2c2ccccc2)CC1, the IC50 (second compound 0.1 µM) was under 3.16 nM, the IC50 (second compound 0.316 µM) was under 3.16 nM and the IC50 (second compound 1 µM) was under 3.16 nM. The IC50 (second compound 3.16 µM) was under 3.16 nM, the IC50 (second compound 10 µM) was under 3.16 nM and the viability, T/C [1] was 34%. It also gave a viability, T/C [2] of 8.09%, a viability, T/C [3] of 2.59% and a viability, T/C [4] of 2.93%. It also gave a viability, T/C (second compound 0.1 µM, first compound 0.316 µM) of 2.92%, a viability, T/C (second compound 0.1 µM, first compound 1 µM) of 2.47% and a viability, T/C [5] of 34.6%. The viability, T/C [6] was 4.21%, the viability, T/C [7] was 3.27% and the viability, T/C [8] was 2.5%. For the same compound, the viability, T/C (second compound 0.316 µM, first compound 0.316 µM) was 2.51%, the viability, T/C (second compound 0.316 µM, first compound 1 µM) was 2.35% and the viability, T/C [9] was 47.9%. For the same compound, the viability, T/C [10] was 5.71%, the viability, T/C [11] was 3.16% and the viability, T/C [12] was 6.76%. It also gave a viability, T/C (second compound 1 µM, first compound 0.316 µM) of 2.71%, a viability, T/C (second compound 1 µM, first compound 1 µM) of 1.94% and a viability, T/C [13] of 31.8%. The viability, T/C [14] was 4.91%, the viability, T/C [15] was 2.4% and the viability, T/C [16] was 2.55%. For the same compound, the viability, T/C (second compound 3.16 µM, first compound 0.316 µM) was 1.47%, the viability, T/C (second compound 3.16 µM, first compound 1 µM) was 2.19% and the viability, T/C [17] was 22.4%. For the same compound, the viability, T/C [18] was 2.05%, the viability, T/C [19] was 1.29% and the viability, T/C [20] was 1.19%. For the same compound, the viability, T/C (second compound 10 µM, first compound 0.316 µM) was 1.28% and the viability, T/C (second compound 10 µM, first compound 1 µM) was 1.12%.

`Cn1ncnc1C1c2n[nH]c(=O)c3cc(F)cc(c23)NC1c1ccc(F)cc1` (stereo not given) + NC1CCC(NC2CC2c2ccccc2)CC1 gave an IC50 (second compound 0.1 µM) of 1.91 nM, an IC50 (second compound 0.316 µM) of 1.68 nM and an IC50 (second compound 1 µM) of 1.56 nM. For the same compound, the IC50 (second compound 3.16 µM) was 1.24 nM, the IC50 (second compound 10 µM) was under 0.316 nM and the viability, T/C (second compound 0.1 µM, first compound 0.000316 µM) was 69.9%. The viability, T/C (second compound 0.1 µM, first compound 0.001 µM) was 61.4%, the viability, T/C [1] was 39.8% and the viability, T/C [2] was 4.59%. The viability, T/C [3] was 1.93%, the viability, T/C [4] was 2.12% and the viability, T/C (second compound 0.316 µM, first compound 0.000316 µM) was 67%. The viability, T/C (second compound 0.316 µM, first compound 0.001 µM) was 66.3%, the viability, T/C [5] was 30.7% and the viability, T/C [6] was 4.65%. For the same compound, the viability, T/C [7] was 2.59%, the viability, T/C [8] was 2.43% and the viability, T/C (second compound 1 µM, first compound 0.000316 µM) was 59%. The viability, T/C (second compound 1 µM, first compound 0.001 µM) was 59.9%, the viability, T/C [9] was 35.7% and the viability, T/C [10] was 4.84%. It also gave a viability, T/C [11] of 2.31%, a viability, T/C [12] of 2.49% and a viability, T/C (second compound 3.16 µM, first compound 0.000316 µM) of 54.7%. It also gave a viability, T/C (second compound 3.16 µM, first compound 0.001 µM) of 53.5%, a viability, T/C [13] of 33.7% and a viability, T/C [14] of 3.84%. It also gave a viability, T/C [15] of 2.11%, a viability, T/C [16] of 2.23% and a viability, T/C (second compound 10 µM, first compound 0.000316 µM) of 33.6%. For the same compound, the viability, T/C (second compound 10 µM, first compound 0.001 µM) was 31.5%, the viability, T/C [17] was 16% and the viability, T/C [18] was 1.98%. For the same compound, the viability, T/C [19] was 0.92% and the viability, T/C [20] was 1.15%.

`NS(=O)(=O)OCC1CC(n2ccc3c(NC4CCc5ccccc54)ncnc32)CC1O` (stereo not given) + NC1CCC(NC2CC2c2ccccc2)CC1 gave an IC50 (second compound 0.1 µM) of under 9.49 nM, an IC50 (second compound 0.316 µM) of under 9.49 nM and an IC50 (second compound 1 µM) of under 9.49 nM. The IC50 (second compound 3.16 µM) was under 9.49 nM, the IC50 (second compound 10 µM) was under 9.49 nM and the viability, T/C (second compound 0.1 µM, first compound 0.00949 µM) was 17.3%. It also gave a viability, T/C (second compound 0.1 µM, first compound 0.03 µM) of 8.79%, a viability, T/C (second compound 0.1 µM, first compound 0.0949 µM) of 2.05% and a viability, T/C (second compound 0.1 µM, first compound 0.3 µM) of 4.77%. For the same compound, the viability, T/C (second compound 0.1 µM, first compound 0.949 µM) was 0.6%, the viability, T/C (second compound 0.1 µM, first compound 3 µM) was 0.42% and the viability, T/C (second compound 0.316 µM, first compound 0.00949 µM) was 16.2%. It also gave a viability, T/C (second compound 0.316 µM, first compound 0.03 µM) of 7.48%, a viability, T/C (second compound 0.316 µM, first compound 0.0949 µM) of 2.74% and a viability, T/C (second compound 0.316 µM, first compound 0.3 µM) of 0.89%. For the same compound, the viability, T/C (second compound 0.316 µM, first compound 0.949 µM) was 0.5%, the viability, T/C (second compound 0.316 µM, first compound 3 µM) was 0.48% and the viability, T/C (second compound 1 µM, first compound 0.00949 µM) was 15.2%. For the same compound, the viability, T/C (second compound 1 µM, first compound 0.03 µM) was 7.52%, the viability, T/C (second compound 1 µM, first compound 0.0949 µM) was 2.66% and the viability, T/C (second compound 1 µM, first compound 0.3 µM) was 1.51%. It also gave a viability, T/C (second compound 1 µM, first compound 0.949 µM) of 5.93%, a viability, T/C (second compound 1 µM, first compound 3 µM) of 0.59% and a viability, T/C (second compound 3.16 µM, first compound 0.00949 µM) of 11.4%. It also gave a viability, T/C (second compound 3.16 µM, first compound 0.03 µM) of 6.38%, a viability, T/C (second compound 3.16 µM, first compound 0.0949 µM) of 1.67% and a viability, T/C (second compound 3.16 µM, first compound 0.3 µM) of 0.54%. It also gave a viability, T/C (second compound 3.16 µM, first compound 0.949 µM) of 0.21%, a viability, T/C (second compound 3.16 µM, first compound 3 µM) of 5.61% and a viability, T/C (second compound 10 µM, first compound 0.00949 µM) of 7.36%. The viability, T/C (second compound 10 µM, first compound 0.03 µM) was 4.1%, the viability, T/C (second compound 10 µM, first compound 0.0949 µM) was 0.72% and the viability, T/C (second compound 10 µM, first compound 0.3 µM) was 0.29%. It also gave a viability, T/C (second compound 10 µM, first compound 0.949 µM) of 0.22% and a viability, T/C (second compound 10 µM, first compound 3 µM) of 0.19%.
